Measured values from ChEMBL document CHEMBL4842376, “Design, synthesis and biological evaluation of novel hybrids targeting mTOR and HDACs for potential treatment of hepatocellular carcinoma” (Eur J Med Chem, 2021).
Active and inactive are the calls of the source. No cut-off for these calls is given here.

Experiments:
HepG2 [1] = experiment: Induction of apoptosis in human HepG2 cells assessed as early apoptotic cells at 5 uM measured after 24 hrs by Annexin V-FITC/PI staining based flow cytometry analysis (Rvb= 6.15%); type: functional
[2] = biological target: T1, Serine/threonine-protein kinase mTOR (Homo sapiens, UniProt P42345); experiment: Inhibition of mTOR in human HepG2 cells assessed as reduction in phosphorylation of p70S6K measured after 24 hrs by western blot analysis; type: cell-based; conditions: dose 1.5-6 µM
[3] = biological target: T1, Serine/threonine-protein kinase mTOR; experiment: Inhibition of mTOR in human HepG2 cells assessed as reduction in phosphorylation of 4EBP1 measured after 24 hrs by western blot analysis; type: cell-based; conditions: dose 1.5-6 µM
Histone deacetylase 8 = biological target: T2, Histone deacetylase 8 (Homo sapiens, UniProt Q9BY41); experiment: Inhibition of HDAC8 (unknown origin) using Ac-peptide as a substrate pretreated for 15 mins followed by substrate addition
T2 sequence (Q9BY41 whole entry): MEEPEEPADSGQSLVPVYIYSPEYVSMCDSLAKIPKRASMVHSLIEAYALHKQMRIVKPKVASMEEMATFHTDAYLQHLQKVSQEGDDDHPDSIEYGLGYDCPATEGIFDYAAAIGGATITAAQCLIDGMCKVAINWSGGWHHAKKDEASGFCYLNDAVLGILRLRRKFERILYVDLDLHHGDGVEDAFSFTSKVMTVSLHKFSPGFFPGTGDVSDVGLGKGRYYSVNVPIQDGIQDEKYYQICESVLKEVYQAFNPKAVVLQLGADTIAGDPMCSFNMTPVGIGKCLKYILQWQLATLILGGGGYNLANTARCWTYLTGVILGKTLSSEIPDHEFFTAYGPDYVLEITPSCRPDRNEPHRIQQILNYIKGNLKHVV

HepG2 [4] = experiment: Induction of apoptosis in human HepG2 cells assessed as early apoptotic cells at 10 uM measured after 24 hrs by Annexin V-FITC/PI staining based flow cytometry analysis (Rvb= 6.15%); type: functional
HepG2 [5] = experiment: Antimigratory activity in human HepG2 cells assessed as reduction in wound closure measured after 24 to 48 hrs by scratch wound healing assay; type: functional, cell-based; conditions: dose 1.5-6 µM, time 24-48 hrs
[6] = biological target: T1, Serine/threonine-protein kinase mTOR; experiment: Activation of mTOR in human HepG2 cells assessed as increase in p70S6K phosphorylation at 1.5 uM measured after 24 hrs by western blot analysis; type: cell-based; conditions: filed as activator
[7] = biological target: T1, Serine/threonine-protein kinase mTOR; experiment: Activation of mTOR in human HepG2 cells assessed as increase in 4EBP1 phosphorylation at 1.5 uM measured after 24 hrs by western blot analysis; type: cell-based; conditions: filed as activator

Structure (SMILES): Nc1nc2cc(-c3nn(CCCCCCC(=O)NO)c4ncnc(N)c34)ccc2o1
- Activity (HepG2 [1]): 15.3%
- inhibition [2]: Dose-Dependent Effect
- inhibition [3]: Dose-Dependent Effect
- IC50 (Histone deacetylase 8): 231 nM
- Activity (HepG2 [4]): 30.4%
- Activity (HepG2 [5]): Dose-Dependent Effect

Structure (SMILES): Nc1ncnc2c1c(-c1cnc3[nH]ccc3c1)nn2CCCCCCCCC(=O)NO
- Activity [6]: Active
- Activity (HepG2 [1]): 12%
- Activity [7]: Active
- IC50 (Histone deacetylase 8): 733 nM
- Activity (HepG2 [4]): 19.7%
- Activity (HepG2 [5]): Dose-Dependent Effect
